Measurements taken from ChEMBL document CHEMBL1155017, “The use of natural product scaffolds as leads in the search for trypanothione reductase inhibitors” (Bioorg Med Chem, 2008).
Activity calls are given as the source filed them. The calls are words filed in the database; no cut-off is given here.

Legend:
[1] = biological target: Trypanothione reductase (Trypanosoma cruzi) (UniProt P28593); test: Inhibition of Trypanosoma cruzi recombinant trypanothione reductase at 85 uM
Leishmania amazonensis [2] = test: Antileishmanial activity against Leishmania amazonensis MHOM/BR/76/LTB-012 promastigotes at 100 uM after 72 hrs by alamar blue assay; type: functional; settings: MHOM/BR/76/LTB-012, 72 h, read-out: GI
Leishmania infantum = test: Antileishmanial activity against Leishmania infantum promastigotes; type: functional, organism-based
Trypanothione reductase [3] = biological target: T1, Trypanothione reductase (Trypanosoma cruzi, UniProt P28593); test: Inhibition of Trypanosoma cruzi recombinant trypanothione reductase-substrate complex
T1 sequence (P28593 whole entry): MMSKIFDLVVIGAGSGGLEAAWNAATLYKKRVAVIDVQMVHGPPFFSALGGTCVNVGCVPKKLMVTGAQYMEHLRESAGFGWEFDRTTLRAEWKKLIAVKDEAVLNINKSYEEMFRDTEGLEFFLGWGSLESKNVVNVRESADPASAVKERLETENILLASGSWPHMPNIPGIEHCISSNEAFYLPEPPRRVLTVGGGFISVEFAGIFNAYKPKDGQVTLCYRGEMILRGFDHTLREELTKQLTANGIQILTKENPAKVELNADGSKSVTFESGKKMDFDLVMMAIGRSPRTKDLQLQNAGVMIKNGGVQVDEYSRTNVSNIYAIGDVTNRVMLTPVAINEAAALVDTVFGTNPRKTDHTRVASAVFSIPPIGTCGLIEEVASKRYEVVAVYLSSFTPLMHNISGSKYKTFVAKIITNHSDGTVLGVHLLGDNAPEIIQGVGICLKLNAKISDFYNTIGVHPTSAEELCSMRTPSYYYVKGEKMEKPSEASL

Trypanothione reductase [4] = biological target: T1, Trypanothione reductase; test: (§1) Inhibition of Trypanosoma cruzi recombinant trypanothione reductase
Leishmania amazonensis [5] = test: Antileishmanial activity against Leishmania amazonensis MHOM/BR/76/LTB-012 promastigotes after 72 hrs by alamar blue assay; type: functional, organism-based; settings: MHOM/BR/76/LTB-012, 72 h
[6] = biological target: T2, Glutathione reductase (Saccharomyces cerevisiae S288c) (UniProt P41921); test: Inhibition of yeast glutathione reductase at 100 uM
T2 sequence (whole entry): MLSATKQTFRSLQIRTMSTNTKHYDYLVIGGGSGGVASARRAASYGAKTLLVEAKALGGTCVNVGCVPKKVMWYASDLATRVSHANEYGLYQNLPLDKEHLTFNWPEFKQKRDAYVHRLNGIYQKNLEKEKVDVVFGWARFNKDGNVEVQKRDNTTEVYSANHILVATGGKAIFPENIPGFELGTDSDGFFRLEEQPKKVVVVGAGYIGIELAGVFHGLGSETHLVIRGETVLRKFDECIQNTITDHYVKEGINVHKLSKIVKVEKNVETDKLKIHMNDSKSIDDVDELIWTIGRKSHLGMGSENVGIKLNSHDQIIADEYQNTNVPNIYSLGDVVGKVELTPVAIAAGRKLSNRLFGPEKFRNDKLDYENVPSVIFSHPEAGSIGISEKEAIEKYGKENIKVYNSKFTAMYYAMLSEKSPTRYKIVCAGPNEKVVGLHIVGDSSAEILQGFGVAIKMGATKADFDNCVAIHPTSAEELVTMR

NIH3T3 = test: Cytotoxicity against mouse NIH3T3 cells; type: cell-based
[7] = biological target: Trypanothione reductase (Trypanosoma cruzi) (UniProt P28593); test: as §1
[8] = biological target: T2, Glutathione reductase (Saccharomyces cerevisiae S288c); test: Inhibition of yeast glutathione reductase at 10 uM
Trypanothione reductase [9] = biological target: T3, Trypanothione reductase (Crithidia fasciculata, UniProt P39040); test: Inhibition of Crithidia fasciculata trypanothione reductase-substrate complex
T3 sequence (P39040 whole entry): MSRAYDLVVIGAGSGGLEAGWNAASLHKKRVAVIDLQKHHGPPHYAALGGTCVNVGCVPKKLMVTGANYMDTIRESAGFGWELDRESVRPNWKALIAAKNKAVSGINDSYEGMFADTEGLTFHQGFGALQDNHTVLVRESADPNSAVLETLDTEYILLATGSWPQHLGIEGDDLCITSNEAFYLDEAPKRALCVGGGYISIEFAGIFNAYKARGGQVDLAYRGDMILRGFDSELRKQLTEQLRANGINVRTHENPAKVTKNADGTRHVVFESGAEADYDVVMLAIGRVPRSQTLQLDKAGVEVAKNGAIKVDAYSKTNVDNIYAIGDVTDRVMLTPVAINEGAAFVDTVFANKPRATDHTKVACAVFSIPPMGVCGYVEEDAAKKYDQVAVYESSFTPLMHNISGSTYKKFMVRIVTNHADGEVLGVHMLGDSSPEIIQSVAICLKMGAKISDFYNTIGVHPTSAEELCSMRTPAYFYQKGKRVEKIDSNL

Trypanothione reductase [10] = biological target: T3, Trypanothione reductase; test: Inhibition of Crithidia fasciculata free trypanothione reductase
[11] = biological target: Trypanothione reductase (Trypanosoma cruzi) (UniProt P28593); test: Inhibition of Trypanosoma cruzi recombinant trypanothione reductase at 12.2 uM
[12] = biological target: Trypanothione reductase (Trypanosoma cruzi) (UniProt P28593); test: Inhibition of Trypanosoma cruzi recombinant trypanothione reductase at 200 uM
[13] = biological target: Trypanothione reductase (Trypanosoma cruzi) (UniProt P28593); test: Inhibition of Trypanosoma cruzi recombinant trypanothione reductase at 800 uM
[14] = biological target: Trypanothione reductase (Trypanosoma cruzi) (UniProt P28593); test: Inhibition of Trypanosoma cruzi recombinant trypanothione reductase at 400 uM

Chain of Trypanothione reductase (Trypanosoma cruzi) (P28593 whole entry, looked up): as the sequence (P28593 whole entry) above

**Q.** `Cc1nccc2c3ccccc3n(CCCN(C)C)c12` was tested. Which inhibition [1] did it give?
**A.** 22%

**Q.** With `Cc1nccc2c1[nH]c1ccccc12` as the compound, how does the inhibition [1] read?
**A.** 10%

**Q.** Which results are given for `C=CC1CN2CCC1CC2C(O)c1ccnc2ccccc12` (centres undefined)?
**A.** inhibition [1]: 18%; inhibition of growth at 100 µM (Leishmania amazonensis [2]): 51%

**Q.** Which results are given for `COc1ccc2c3c([nH]c2c1)C(C)=NCC3` [HARMALINE]?
**A.** inhibition [1]: 19%; IC50 (Leishmania infantum): 119 µM

**Q.** For `CN(C)Cc1cn(C)c2ccccc12`, which inhibition [1] is on record?
**A.** 8%

**Q.** How did the Ki (Trypanothione reductase [3]) turn out when `COc1ccc2cc1Oc1ccc(cc1)C[C@H]1c3c(cc4c(c3Oc3cc5c(cc3OC)CCN(C)[C@@H]5C2)OCO4)CCN1C` [CEPHARANTHINE] was run?
**A.** 51.6 µM

**Q.** And the Ki (Trypanothione reductase [4])?
**A.** 7.6 µM

**Q.** Which inhibition [1] does the source give for `COc1ccc2c3ccnc(C)c3n(CCCN(C)C)c2c1` here?
**A.** 13%

**Q.** With `CC[C@H]1[C@@H]2C[C@H]3[C@@H]4N(C)c5ccccc5[C@]45C[C@@H]([C@@H]2[C@H]5O)N3[C@@H]1O` [AJMALINE] as the compound, how does the inhibition [1] read?
**A.** 12%

**Q.** What about the inhibition of growth at 100 µM (Leishmania amazonensis [2]) of the same compound?
**A.** 5%

**Q.** Which inhibition [1] does the source give for `COC(=O)NC1CCc2cc(OC)c(OC)c(OC)c2-c2ccc(OC)c(=O)cc21` (centres undefined) [COLCHININE] here?
**A.** 8%

**Q.** What about the inhibition of growth at 100 µM (Leishmania amazonensis [2]) of the same compound?
**A.** 6%

**Q.** For `O=c1cc(-c2ccc(O)cc2)oc2cc(O)cc(O)c12`, which inhibition [1] is on record?
**A.** 13%

**Q.** `c1ccc2c(c1)[nH]c1cnccc12` was tested. Which inhibition [1] did it give?
**A.** 10%

**Q.** Which IC50 (Leishmania amazonensis [5]) does the source give for `N=C(N)c1ccc(OCCCCCOc2ccc(C(=N)N)cc2)cc1` [PENTAMIDINE] here?
**A.** 0.29 µM

**Q.** And the inhibition of growth at 100 µM (Leishmania amazonensis [2])?
**A.** 86%

**Q.** Which results are given for `CC[C@@]12CCCN3CC[C@]4(c5cccc(OC)c5N(C(C)=O)[C@@H]4CC1)[C@H]32` [ASPIDOSPERMINE]?
**A.** IC50 (Trypanothione reductase [4]): 90.4 µM; Ki (Trypanothione reductase [4]): 64.6 µM; Activity [6]: inactive; IC50 (NIH3T3): 46.2 µM; inhibition [1]: 43%; inhibition of growth at 100 µM (Leishmania amazonensis [2]): 89%

**Q.** Which inhibition [1] does the source give for `O=C(/C=C/C=C/c1ccc2c(c1)OCO2)N1CCCCC1` here?
**A.** 11%

**Q.** `COc1ccc(-c2cc(=O)c3c(O)cc(OC)cc3o2)cc1` was tested. Which inhibition [1] did it give?
**A.** 12%

**Q.** `O=C1CC[C@]23/C=C/C(=O)NCCCCNCCCNC(=O)/C=C\c4ccc(c2c4)O[C@@H]3C1` was tested. Which Ki (Trypanothione reductase [4]) did it give?
**A.** 144 µM

**Q.** And the Kinact [7]?
**A.** 0.116 min⁻¹

**Q.** What does the source list for `O=c1[nH]c2c(c(=O)[nH]1)Nc1ccccc1S2` [PYRIMIDOBENZOTHIAZINE]?
**A.** inhibition [1]: 36%; inhibition of growth at 100 µM (Leishmania amazonensis [2]): 15%

**Q.** How did the inhibition [1] turn out when `O=c1[nH]c2c(c(=O)[nH]1)CNc1ccccc1S2` [PYRIMIDOBENZOTHIAZEPINE] was run?
**A.** 10%

**Q.** What about the inhibition of growth at 100 µM (Leishmania amazonensis [2]) of the same compound?
**A.** 14%

**Q.** `C[C@@H]1CN(CCCn2c3ccccc3c3ccccc32)C[C@H](C)N1` was tested. Which inhibition [1] did it give?
**A.** 4%

**Q.** How did the Ki (Trypanothione reductase [4]) turn out when `COc1cc(CC2NCCc3c2[nH]c2ccccc32)ccc1O` (centres undefined) was run?
**A.** 7 µM

**Q.** Which inhibition [1] does the source give for `CN(C)CCCn1c2ccccc2c2ccncc21` here?
**A.** 20%

**Q.** `CN(C)CCCn1c2c(c(=O)n(CCCN(C)C)c1=O)Nc1ccccc1S2` was tested. Which Ki (Trypanothione reductase [4]) did it give?
**A.** 26.9 µM

**Q.** And the Activity [6]?
**A.** inactive

**Q.** What about the inhibition [1] of the same compound?
**A.** 62%

**Q.** What about the inhibition of growth at 100 µM (Leishmania amazonensis [2]) of the same compound?
**A.** 11%

**Q.** How did the inhibition [8] turn out when `CN(C)c1ccc2nc3ccc(=[N+](C)C)cc-3sc2c1` was run?
**A.** 30%

**Q.** How did the Ki (Trypanothione reductase [4]) turn out when `N#Cc1ccc(C2NCCc3c2[nH]c2ccccc32)cc1` (centres undefined) was run?
**A.** 2 µM

**Q.** With `COc1ccc2c3c(n(CCCN(C)C)c2c1)C(C)=NCC3` as the compound, how does the Ki (Trypanothione reductase [4]) read?
**A.** 35.1 µM

**Q.** And the inhibition [6]?
**A.** 6%

**Q.** What about the inhibition [1] of the same compound?
**A.** 50%

**Q.** And the inhibition of growth at 100 µM (Leishmania amazonensis [2])?
**A.** 57%

**Q.** How did the inhibition [1] turn out when `COc1ccc2c(c1)[nH]c1c(C)nccc12` was run?
**A.** 11%

**Q.** How did the Ki (Trypanothione reductase [9]) turn out when `O=C(CCc1ccc(O)c(O)c1)NCCCNCCCCNCCCNC(=O)CCc1ccc(O)c(O)c1` [KUKOAMINE A] was run?
**A.** 13 µM

**Q.** And the Ki (Trypanothione reductase [10])?
**A.** 1.8 µM

**Q.** Which results are given for `CC1=CC2c3cccc4[nH]cc(c34)C[C@H]2N(C)C1` (some centres undefined)?
**A.** inhibition [1]: 28%; inhibition of growth at 100 µM (Leishmania amazonensis [2]): 70%

**Q.** `CN(C)CCCN1c2ccccc2Sc2ccc(Cl)cc21` [CHLORPROMAZINE] was tested. Which IC50 (Trypanothione reductase [4]) did it give?
**A.** 5.8 µM

**Q.** And the Ki (Trypanothione reductase [4])?
**A.** 3.2 µM

**Q.** What about the inhibition [11] of the same compound?
**A.** 70%

**Q.** Which results are given for `C[C@H]1[C@H]2CC[C@H]3[C@@H]4CC=C5C[C@@H](N(C)C)CC[C@]5(C)[C@H]4CC[C@]23CN1C` [CONESSINE]?
**A.** inhibition [12]: 45%; inhibition [13]: 91%; inhibition [1]: 25%; inhibition [14]: 73%; inhibition of growth at 100 µM (Leishmania amazonensis [2]): 97%

**Q.** With `CN(C)CCc1cn(C)c2ccc(O)cc12` as the compound, how does the inhibition [1] read?
**A.** 9%
